According to patent US20210253511A1, “COMPOUNDS AND USES FOR THE TREATMENT AND PREVENTION OF DISEASES AND CONDITIONS ASSOCIATE WITH OR AGGREVATED BY IMPARED MITOPHAGY” (Yissum Research Development Company of The Hebrew …, priority 2018, published 2021):

Columns and labels:
C. elegans [1] = assay: Off-food speed measurements; format: in vivo; conditions: 4 mM, aged worms, untreated worms declined significantly
Experimental: Bar graphs presenting the speed of 3 and 11 days post L1 wild-type worms that were treated with 4 mM 1,8-Diaminooctane or with vehicle as a control. The measurements of speed were performed in the absence of food (n=6 assays performed over at least 3 days). Asterisks indicate significance for comparisons with control worms (day 11). **p<0.01, two-way ANOVA with Bonferroni post-test. NS, Not significant. Error bars indicate SEM.
For speed-imaging experiments, low-peptone NGM agar plates were used. These plates were prepared as described above apart from the of Bacto peptone concentration that was decreased to 0.13 g/L and the use of 60 mm petri dished (instead of 35 mm dishes). […] In brief, eight synchronized worms (age 3 or 11 post-L1) were put (for 30 min) in a drop of M9 buffer to clean them from external and internal bacteria. During the 30 min the M9 buffer was replaced twice. After 30 min, the worms were placed at the center of a 17 mm diameter copper ring on an unseeded low-peptone plate. Recording was started after 5 min acclimation time. The worms were recorded for 10 min at 0.5 frames/s, using a Q-Imaging MicroPublisher 5.0 RTV Microscope Camera mounted onto an Olympus SZ61 stereo microscope. A custom-written MATLAB software was used to analyze the speed. For each treatment, at least 48 animals in 6 independent assays were measured.

[2] = test system: dct-1(tm376) mutants / dct-1 RNAi worms; assay: Paraquat survival assay in dct-1 deletion mutant or RNAi knockdown worms; format: in vivo, C. elegans
Experimental: (§1) FIGS. 9A-9D show the protective activity of 1,8-Diaminooctane is mitophagy-dependent. (FIG. 9A) is a schematic illustration of the mitophagy pathway in C. elegans. Survival curves presenting the effect of dct-1 and pink-1 deletion mutations (FIG. 9B, FIG. 9C) or RNAi knockdowns (FIG. 9D) on worms' viability in 200 mM PQ at indicated time points. Statistical analysis on PQ survival curves were performed using the log-rank (Mantel-Cox) test with Prism 7 software. The plots represent the average of six independent experiments. The minimum number of worms examined for each experimental condition is 133.
(§2) In the first one, the effect of 1,8-Diaminooctane on the survival of dct-1 and pink-1 mutants in PQ was investigated. DCT-1 is an orthologue of the mammalian NIX/BNIP3L and BNIP3 that act as mitophagy receptors, and PINK-1 is a mitochondrial phosphatase and tensin (PTEN)-induced kinase 1 which has a critical function in mitophagy (see K. Palikaras, E. Lionaki, N. Tavernarakis, Coordination of mitophagy and mitochondrial biogenesis during ageing in C. elegans, Nature 521 (7553) (2015) 525-8; and FIG. 3A). It was hypothesized that if mitophagy is essential for the protective effect of 1,8-Diaminooctane, then dct-1 and pink-1 mutants will become sensitive to PQ following treatment. […] The second experiment that was performed was an RNAi experiment. Here, dct-1 and pink-1 were selectively knocked down using RNAi. The RNAi results recapitulated the one of the mutant experiments ([…]). […] Importantly, the RNAi phenotype was less strong compared to the one observed with the deletion mutants. […] The difference between the results could be due to incomplete suppression of dct-1 and pink-1 in the RNAi treated worms. Together, our results verify that 1,8-Diaminooctane protects against oxidative stress by activating mitophagy.

[3] = test system: pink-1(tm1779) mutants / pink-1 RNAi worms; assay: Paraquat survival assay in pink-1 deletion mutant or RNAi knockdown worms; format: in vivo, C. elegans
Experimental: as §1, §2

C. elegans [4] = assay: Lifespan assay; format: in vivo; conditions: 4 mM from L1; 21° C.; control 12 days; p=0.0063
Experimental: FIG. 10. […] Survival curves comparing the lifespans of worm growing on plates containing 0.25 mM and 4 mM 1,8-Diaminooctane (or vehicle as a control). The curves represent data from at least three independent experiments in which the lifespans of at least 145 worms were measured (for each condition). The lifespan medians and p values are indicated in the parentheses near the treatment legend. All lifespan assays were conducted at 21° C. and started with synchronized L1 larvae. Statistical analysis on lifespan survival curves was performed using the log-rank (Mantel-Cox).
Lifespan assays were performed as described in R. Abergel, L. Livshits, M. Shaked, A. K. Chatterjee, E. Gross, Synergism between soluble guanylate cyclase signaling and neuropeptides extends lifespan in the nematode Caenorhabditis elegans, Aging cell 16 (2) (2017) 401-413. In brief, 12 worms per plate were used. […] Worm's survival was scored every two days for live, dead (when it no longer responded to touch), and missing worms. The worms were transferred into fresh plates every 2 days to avoid progeny contamination and every 4 days when worms are in post-fertile stage, until the end of the experiment. Worms were scored as censored when they display internal progeny hatching (worm bagging), rupture, burrow in the agar or crawl off the plates, however, include them in the lifespan data analysis as censored. […]

[5] = compared to control worms that did not get the treatment, p<0.0001
[6] = compared to treated wild-type worms, 200 mM PQ, p<0.0001
[7] = compared to worms treated with mock RNAi (empty vector)

For `NCCCCCCCCN` [1,8-Diaminooctane], which “speed (off food), day 11 post L1” value (C. elegans [1]) is on record?
Its value is “remained high and was similar to day 3”.

What about the “speed (off food), day 11 post L1” value (C. elegans [1]; listed as 1,8-diaminooctane) of the same compound?
Its value is “no change in the speed”.

What about the “survival in PQ of treated worms, RNAi against dct-1” value [2, 5] of the same compound?
Its value is “significantly higher than control worms”.

What about the “resistance to PQ after treatment, dct-1(tm376) mutants” value [2, 6] of the same compound?
Its value is “significantly less resistant to PQ”.

What about the “protective effect in PQ, RNAi against dct-1” value [2, 7] of the same compound?
The value was “significantly lesser”.

What about the “survival in PQ of treated worms, RNAi against pink-1” value [3, 5] of the same compound?
Its value is “significantly higher than control worms”.

And the “resistance to PQ after treatment, pink-1(tm1779) mutants” value [3, 6]?
Its value is “significantly less resistant to PQ”.

And the “protective effect in PQ, RNAi against pink-1” value [3, 7]?
Its value is “significantly lesser”.

And the median lifespan (C. elegans [4])?
Its median lifespan is 15 days.
